Results taken from patent US8898047B2, “Methods for identifying inhibitors against viruses that use a class I fusion protein” (Janssen Pharmaceuticals NV, priority 2008, dated 2014).

Columns and labels:
[1] = biological target: biotin-labeled IQN57 / FITC-labeled C45 (HR1-CTC and HR2) (Human respiratory syncytial virus A, UniProt P03420); conditions: 6HB-formation ELISA, FIG. 3E
Experimental: White streptavidin-coated 96-well plates (NoAb Biodiscoveries, Mississauga, Canada) were blocked with PBS+5% BSA for 1 h and then washed three times with PBS. 10 nM biotin-labeled IQN57 dissolved in PBS+1% BSA was non-covalently bound to the surfaces of the 96-well plate for 30 min and then wells were washed again 3 times with PBS. […] Subsequently, POD-conjugated anti-FITC Fab fragment (1:5000) (Roche Applied Science, Vilvoorde, Belgium) in PBS+1% BSA was administered to the wells and incubated for 30 min. Finally, wells were washed again three times with PBS, Supersignal West Femto chemiluminescent substrate from Pierce (Perbio Science, Erembodegem, Belgium) added and signals were analyzed on a ViewLux UltraHTS microplate reader (Perkin Elmer, Zaventem, Belgium). Assay conditions without addition of biotin-labeled IQN57, FITC-labeled C45, POD-conjugated anti-FITC Fab fragment, or chemiluminescent substrate were included as negative controls or control of background signal in each of the experiments. In addition, assay conditions with saquinavir, Fuzeon® (T20), or the HIV-1-derived HR1 peptide (biotin-labeled IQN36) were used as specificity controls in each experiment.

[2] = test system: HR1-derived peptide; conditions: prior art (Cianci et al.); cited from earlier work
[3] = biological target: IQN57 (HR1 hydrophobic pocket) (Human respiratory syncytial virus A, UniProt P03420); conditions: 30 μM compound, 20° C., HR1 alone
Sequence of IQN57 (HR1 hydrophobic pocket) (P03420 153-209): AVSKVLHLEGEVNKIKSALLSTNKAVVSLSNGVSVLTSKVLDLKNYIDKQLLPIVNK
Experimental: 20 μM biotinylated-IQN57 was immobilized on a Streptavidin-certified sensor chip (GE Healthcare, Diegem, Belgium) surface in PBS at a flow rate of 10 μl/min and a contact time of 7 min. A reference flow cell was used as a control for nonspecific binding and refractive index changes. […] Several PBS+5% dimethylsulfoxide (DMSO; Sigma Aldrich NV, Bornem, Belgium) buffer blanks were injected over the course of an experiment for double referencing. The flow system was washed between sample injections with running buffer containing 50% DMSO, and the immobilized surface was regenerated with one injection of 0.2% sodiumdodecylsulfate for 30 sec. SPR biosensor data were collected on a BIAcore S51. All experiments were conducted at 20° C.

[4] = biological target: T1, HR1 (IQN57) and HR2 (C45) heptad-repeat peptides (Human respiratory syncytial virus A, UniProt P03420); type: binding, hRSV; conditions: competition assay, FIG. 3C
T1 construct: IQ trimerisation segment (GCN4-pIQI-type coiled coil)
T1 sequence (P03420 153-209): as above
T1 sequence (P03420 476-520): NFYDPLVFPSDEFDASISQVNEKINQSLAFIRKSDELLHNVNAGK

[5] = test system: RSV; assay: RSV antiviral cellular assay; type: cell-based, hRSV; conditions: for EC50: human respiratory syncytial virus, pEC50 = -log10 EC50 (M), RSV antiviral cellular assay, read-out: In vitro activity (pEC50) (converted); for log reduction in activity on structural modification: reduction of antiviral activity versus parent compound of the Compound Z series

Sequence of biotin-labeled IQN57 / FITC-labeled C45 (HR1-CTC and HR2) (P03420 476-520): as above
Sequence of biotin-labeled IQN57 / FITC-labeled C45 (HR1-CTC and HR2) (P03420 153-209): as the sequence (P03420 153-209) above

EC50 [5]	SMILES	log reduction in activity on structural modification [5]	other results
2.51e-09 M	Cc1cccc(NCc2ccc3nc(NCCCN4CCOCC4)n(Cc4nc(C)ccc4O)c3c2)c1 [Compound 2]	1.3 log	
3.16e-11 M	Cc1ccc(CCCO)c(NCc2ccc3nc(N)n(Cc4nc(C)ccc4O)c3c2)c1 [Compound 4]		log improvement in activity ([5]; removal of the morpholinopropyl group): 0.6 log
1.26e-08 M	Cc1ccc(CCCO)c(NCc2ccc3ncn(Cc4nc(C)ccc4O)c3c2)c1 [Compound 5]	2.6 log	
2.51e-09 M	COc1ccc(C)nc1Cn1c(NCCCN2CCOCC2)nc2ccc(CNc3cc(C)ccc3CCCO)cc21 [Compound 6]	1.3 log	

Second part, the molecule before the results:

SMILES	EC50 [5]	log reduction in activity on structural modification [5]	other results
O=c1n(Cc2nc3ccccc3n2CCCCO)c2cnccc2n1C1CC1 [BMS433771, reference compound]			Effect on interaction of HR2 (C45) with HR1-CTC (IQN57) [1]: facilitate the interaction of HR2 with the HR1-CTC; Binding to an HR1-derived peptide alone [2]: relatively weak; Binding to HR1 (IQN57) by SPR [3]: do not bind to the HR1 hydrophobic pocket alone
Cc1ccc(CCCO)c(NCc2ccc3nc(NCCCN4CCOCC4)n(Cc4nc(C)ccc4O)c3c2)c1 [Compound 1, 2-[6-{[2-(3-hydroxy-propyl)-5-methyl-phenylamino]-methyl}-2-(3-morpholin-4-yl-propylamino)-benzoimidazol-1-ylmethyl]-6-methyl-pyridin-3-ol]			Competition with compound X for binding [4]: competed for the same binding pocket; Effect on interaction of HR2 (C45) with HR1-CTC (IQN57) [1]: facilitate the interaction of HR2 with the HR1-CTC; Binding to HR1 (IQN57) by SPR [3]: do not bind to the HR1 hydrophobic pocket alone
Cc1ccc(O)c(Cn2c(NCCCN3CCOCC3)nc3ccccc32)n1 [Compound 3]	1.58e-07 M		further log decrease in potency ([5]; further truncation of the methylamino-toluene moiety, relative to compound 2): 0.8 log
